Measured values reported in BindingDB's records for doi:10.7270/Q2251GJ9 (The Scripps Research Institute Molecular Screening Center, 2007).

Biological target: Sphingosine 1-phosphate receptor 1 (Homo sapiens, UniProt P21453)
Experiment: direct activation of human S1P1 – cell-based, agonist mode, 60K MLSMR set, dose response (AID 468)
[1] = inactive by the depositor's call

Sphingosine 1-phosphate receptor 1, sequence (P21453 whole entry): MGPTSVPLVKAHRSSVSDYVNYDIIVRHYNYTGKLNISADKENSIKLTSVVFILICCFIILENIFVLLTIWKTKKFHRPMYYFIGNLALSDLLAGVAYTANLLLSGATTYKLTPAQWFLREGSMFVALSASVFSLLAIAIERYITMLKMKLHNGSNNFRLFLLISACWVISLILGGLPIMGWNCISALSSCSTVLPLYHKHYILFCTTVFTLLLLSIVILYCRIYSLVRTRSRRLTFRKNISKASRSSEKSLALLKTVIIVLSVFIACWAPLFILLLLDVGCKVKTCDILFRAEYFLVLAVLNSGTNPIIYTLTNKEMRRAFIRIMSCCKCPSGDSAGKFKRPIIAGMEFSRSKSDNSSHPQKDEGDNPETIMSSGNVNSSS

SMILES | EC50 [1] | EC50
Cc1cc(N2CCN(C(c3ccccc3)c3ccccc3)CC2)n2ncnc2n1 [7-(4-benzhydrylpiperazin-1-yl)-5-methyl-[1,2,4]triazolo[1,5-a]pyrimidine] | 14.5 µM | 
Cc1ccc(S(=O)(=O)n2nc(C)c(Br)c2C)c(C)c1C [4-bromanyl-3,5-dimethyl-1-(2,3,4-trimethylphenyl)sulfonyl-pyrazole] | 88 µM | 
CC(C)c1ccc(OCc2nc(-c3ccccn3)no2)c(Br)c1 [5-[(2-bromanyl-4-propan-2-yl-phenoxy)methyl]-3-pyridin-2-yl-1,2,4-oxadiazole] |  | 4.45 µM
COc1ccc(-n2c(C)c(C(C)=O)c3cc(O)ccc32)cc1 [1-[1-(4-methoxyphenyl)-2-methyl-5-oxidanyl-indol-3-yl]ethanone] | 15.6 µM | 
CCN(CC)C(=O)Oc1ccc2c(=O)c(-c3ccc(OC)cc3)coc2c1 [MLS000083046] | 12.9 µM | 
CC(C)C(c1nnnn1Cc1ccccc1)N(Cc1ccco1)Cc1cccs1 (stereo unspecified) [1-(1-benzyltetrazol-5-yl)-N-(furan-2-ylmethyl)-2-methyl-N-(thiophen-2-ylmethyl)propan-1-amine] | 51.2 µM | 
O=C(NCc1ccco1)C1CCN(C(=O)c2cc3sccc3n2Cc2ccc(Cl)cc2)CC1 [1-[4-(4-chlorobenzyl)thieno[3,2-b]pyrrole-5-carbonyl]-N-(2-furfuryl)isonipecotamide] | 10.6 µM | 
CCOc1nc(C)ccc1-c1noc(-c2ccncc2)n1 [2-ethoxy-6-methyl-3-[5-(4-pyridinyl)-1,2,4-oxadiazol-3-yl]pyridine] |  | 5.42 µM
Cc1sc2ncnc(Sc3nnnn3-c3ccccc3)c2c1C [5,6-dimethyl-4-(1-phenyltetrazol-5-yl)sulfanylthieno[2,3-d]pyrimidine] |  | > 95 µM
CCc1c(C)nc2ncnn2c1NCCc1ccc(OC)cc1 [(6-Ethyl-5-methyl-[1,2,4]triazolo[1,5-a]pyrimidin-7-yl)-[2-(4-methoxy-phenyl)-ethyl]-amine] |  | 8.3 µM
Cc1ccc(-n2c(C)cc(C(=O)CSc3nnnn3C)c2C)cc1 [1-[2,5-dimethyl-1-(4-methylphenyl)-3-pyrrolyl]-2-[(1-methyl-5-tetrazolyl)thio]ethanone] |  | 4.77 µM
COc1cc(-c2noc(C3CCCN(S(=O)(=O)c4cccc(Cl)c4)C3)n2)cc(OC)c1OC (stereo unspecified) [1-(3-Chloro-benzenesulfonyl)-3-[3-(3,4,5-trimethoxy-phenyl)-[1,2,4]oxadiazol-5-yl]-piperidine] |  | 3.83 µM
O=C(CSc1ncnc2c1oc1ccccc12)N1CCCc2ccccc21 [2-(4-benzofuro[3,2-d]pyrimidinylthio)-1-(3,4-dihydro-2H-quinolin-1-yl)ethanone] |  | > 3 µM
COc1ccccc1OCc1nc(C#N)c(N2CC(C)CC(C)C2)o1 (stereo unspecified) [5-(3,5-dimethyl-1-piperidinyl)-2-[(2-methoxyphenoxy)methyl]-4-oxazolecarbonitrile] |  | 4.02 µM
CCOc1nc(-c2ccccc2)ccc1-c1noc(-c2ccco2)n1 [2-Ethoxy-3-(5-furan-2-yl-[1,2,4]oxadiazol-3-yl)-6-phenyl-pyridine] | 16.8 µM | 
CCOC(=O)c1ccc2nc(NC(=O)c3ccco3)sc2c1 [2-(2-furoylamino)-1,3-benzothiazole-6-carboxylic acid ethyl ester] | 16.3 µM | 
CCOC(=O)C1CCN(c2ncnc3c2oc2ccc(Cl)cc23)CC1 [1-(8-chloro-4-benzofuro[3,2-d]pyrimidinyl)-4-piperidinecarboxylic acid ethyl ester] |  | > 95 µM
c1ccc(CSc2nnc(-c3cccs3)o2)cc1 [2-(benzylthio)-5-(2-thienyl)-1,3,4-oxadiazole] | 20.9 µM | 
CCCS(=O)(=O)c1nnnn1-c1cccc(OC)c1 [1-(3-methoxyphenyl)-5-(propylsulfonyl)-1H-tetrazole] |  | 2.82 µM
O=C(OC1CCCCC1)c1ccc(NC(=O)c2ccco2)cc1 [4-(2-furoylamino)benzoic acid cyclohexyl ester] | 13.4 µM | 
CCOC(=O)/C=C/S(=O)(=O)c1ccc(NC(C)=O)cc1 |  | > 3 µM

SMILES | EC50 [1] | EC50
Clc1ccccc1C1=Nn2c(nnc2-c2ccncc2)SC1 [6-(2-chlorophenyl)-3-(4-pyridyl)-7H-[1,2,4]triazolo[3,4-b][1,3,4]thiadiazine] |  | 3.48 µM
CC(C)(C)C1CCC2(CC1)C(C#N)=C(SCC(=O)Nc1ccccc1)NC(=O)C2C#N (stereo unspecified) [2-[(9-tert-butyl-1,5-dicyano-2-oxidanylidene-3-azaspiro[5.5]undec-4-en-4-yl)sulfanyl]-N-phenyl-ethanamide] |  | 4.92 µM
Oc1nnc(Sc2ncnc3sccc23)n1CCc1ccccc1 [4-(2-phenylethyl)-3-(4-thieno[2,3-d]pyrimidinylthio)-1H-1,2,4-triazol-5-one] | 16.9 µM | 
O=C(Nc1ccc(Cl)cc1)N1CCC(c2nc(-c3ccc(F)cc3)no2)CC1 [4-[3-(4-Fluoro-phenyl)-[1,2,4]oxadiazol-5-yl]-piperidine-1-carboxylic acid (4-chloro-phenyl)-amide] |  | 5.07 µM
c1ccc(CNc2ncnc3ccccc23)cc1 [N-benzylquinazolin-4-amine] |  | 4.81 µM
Cc1ccc(S(=O)(=O)Nc2ccc3ncccc3c2)cc1 [4-methyl-N-(6-quinolinyl)benzenesulfonamide] |  | 7.8 µM
CN=C(NC#N)SCC(=O)c1ccc(Cl)cc1Cl [[2-(2,4-dichlorophenyl)-2-oxidanylidene-ethyl] N-cyano-N'-methyl-carbamimidothioate] |  | 4.55 µM
Cc1ccccc1-c1nnc(SCc2ccccc2F)o1 [2-[(2-fluorobenzyl)thio]-5-(2-methylphenyl)-1,3,4-oxadiazole] |  | 1.63 µM
COC(=O)C1=CN(CCCN2CCCC2=O)C=C(C(=O)OC)C1c1ccccc1C(F)(F)F |  | > 95 µM
Cc1cc(C(=O)N2CCN(C(c3ccccc3)c3ccccc3)CC2)on1 [(4-benzhydrylpiperazin-1-yl)-(3-methyl-1,2-oxazol-5-yl)methanone] |  | 5.8 µM
Cc1cccc(-c2nc(C#N)c(NC3CCCCC3)o2)c1 [5-(cyclohexylamino)-2-(3-methylphenyl)-1,3-oxazole-4-carbonitrile] | 13.4 µM | 
CCOc1ccccc1COC(=O)c1cccc(-n2cnnn2)c1 [(2-ethoxyphenyl)methyl 3-(1,2,3,4-tetrazol-1-yl)benzoate] | 22.9 µM | 
COc1ccc(C(=O)C2C(=O)C(=O)N(CC3CCCO3)C2c2cccc(OC)c2)cc1 (stereo unspecified) [(4Z)-4-[hydroxy-(4-methoxyphenyl)methylene]-5-(3-methoxyphenyl)-1-(tetrahydrofurfuryl)pyrrolidine-2,3-quinone] |  | > 95.1 µM
Cc1ccc(-n2ncc3c(N4CCCC(C)C4)ncnc32)c(C)c1 (stereo unspecified) [1-(2,4-dimethylphenyl)-4-(3-methylpiperidin-1-yl)-1H-pyrazolo[3,4-d]pyrimidine] | 11 µM | 
CN(C)S(=O)(=O)c1ccc(C(=O)Nc2nc(-c3cccs3)cs2)cc1 [4-(dimethylsulfamoyl)-N-(4-thiophen-2-yl-1,3-thiazol-2-yl)benzamide] |  | > 10 µM
COCCn1c(C)cc(C(=O)CSc2nc3ccccc3c(=O)[nH]2)c1C [2-[[2-[1-(2-methoxyethyl)-2,5-dimethyl-3-pyrrolyl]-2-oxoethyl]thio]-1H-quinazolin-4-one] |  | 61.2 µM
CCc1ccc2oc(-c3cc(N)cc(C)c3O)nc2c1 [(6E)-4-amino-6-(5-ethyl-3H-1,3-benzoxazol-2-ylidene)-2-methyl-1-cyclohexa-2,4-dienone] |  | 11.4 µM
CCOc1ccc(Cc2nc(-c3nonc3N)no2)cc1OCC [4-[5-(3,4-diethoxybenzyl)-1,2,4-oxadiazol-3-yl]-1,2,5-oxadiazol-3-amine] |  | 9.19 µM
Cc1ccc(-c2nc(CSCC(=O)N3CCN(c4ccccn4)CC3)c(C)o2)cc1 [2-[[5-methyl-2-(4-methylphenyl)-1,3-oxazol-4-yl]methylsulfanyl]-1-(4-pyridin-2-ylpiperazin-1-yl)ethanone] |  | 5.51 µM
COc1ccc(CCNc2c(C)c(C)nc3ncnn23)cc1 [(5,6-Dimethyl-[1,2,4]triazolo[1,5-a]pyrimidin-7-yl)-[2-(4-methoxy-phenyl)-ethyl]-amine] |  | 3.12 µM
CCN(C(=O)C1CCCCC1)c1nnc(-c2cccnc2)s1 [Cyclohexanecarboxylic acid ethyl-(5-pyridin-3-yl-[1,3,4]thiadiazol-2-yl)-amide] |  | 2.13 µM

Continued, values first:

EC50 [1] | EC50 | SMILES
 | 4.1 µM | CC(C)(C)OC(=O)N[C@@H](Cc1ccccc1)c1nnc(S(=O)(=O)Cc2ccccc2)o1 [SMR000047857]
 | 9.84 µM | COc1ccccc1OCCCCCc1c(C)n[nH]c1C [SMR000103101]
 | 3.27 µM | Cc1ccc2c(c1)[nH]c1c(N3CCN(Cc4ccccc4)CC3)ncnc12 [SMR000044826]
 | 6 µM | CCc1cc(-c2n[nH]cc2-c2ccc3c(c2)OCO3)c(O)cc1O [SMR000060132]
 | 0.202 µM | CC(=O)Nc1ccccc1OCC(=O)c1cc(C)n(Cc2cccs2)c1C [MLS000056239]
13 µM |  | CN(Cc1cccs1)c1ncnc2sccc12 [MLS000056228]
 | 4.99 µM | Cc1ccc(NC(=O)c2cc(-c3ccco3)on2)cc1C [MLS000087214]
 | 0.537 µM | COc1ccc(CCNc2ncnc3c2oc2ccccc23)cc1OC [MLS000041708]
 | 9.16 µM | Cc1nn(Cc2ccc(Cl)c(Cl)c2)c(C)c1NC(=O)c1cc(CC(C)C)on1 [MLS000116412]
 | 9.54 µM | O=C(Nc1nc(-c2ccc3c(c2)OCO3)cs1)c1ccncc1 [MLS000073104]
 | 8.51 µM | O=C(Nc1ccc(S(=O)(=O)NCc2ccco2)cc1)c1ccc2ccccc2n1 [MLS000098663]
 | 8.6 µM | CCN=c1scc(-c2ccc3c(c2)NC(=O)CO3)n1N=C1CCCC1 [MLS000054638]
17 µM |  | COc1cccc(-c2csc(N3CCN(CC(=O)Nc4ccc5c(c4)OCO5)CC3)n2)c1 [MLS000070935]
 | 0.946 µM | COc1ccc(-c2nc(-c3ccc(NC(=O)c4ccncc4)cc3)no2)cc1OC [MLS000115086]
11.5 µM |  | Cc1cccc(OCCCCc2c(C)n[nH]c2C)c1 [SMR000103102]
 | 6.12 µM | Fc1ccc2[nH]c3c(N4CCSCC4)ncnc3c2c1 [MLS000078401]
 | 2.22 µM | Cn1c(SCC(=O)Nc2ccc(N3CCOCC3)c(Cl)c2)nnc1-c1ccccc1 [MLS000089171]
 | 3.38 µM | CCCN(C(=O)c1cccs1)c1nnc(-c2ccncc2)s1 [MLS000074637]
 | 12.9 µM | CCCc1ccc(Oc2c[nH]nc2-c2ccc(O)c(C)c2O)cc1 [SMR000024172]
